PubChem BioAssay AID330 (DTP/NCI, 2004)
Values joined by “and” are separate entries in the source; they are usually repeats but may differ in a detail not shown here. Equal values may be shown once. Inconclusive results and toxic doses are left out.

Tested on: P388 leukemia ip, CD2F1 mice, survival T/C
Experiment: NCI In Vivo Anticancer Drug Screen. Data for tumor model P388 Leukemia (intraperitoneal) in CD2F1 (CDF1) mice
Details: endpoint: median survival time, higher = longer survival
Summary of the method: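 Mice carrying the transplanted tumor received test compound or vehicle. Survival was recorded in each group, and the value is the treated-group measurement divided by that of the vehicle-treated control group.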

[1] = dose: 50.0 mg/kg/injection, schedule: Q01DX005 (ip), vehicle: saline with Tween-80
[2] = dose: 200.0 mg/kg/injection, schedule: Q01DX005 (ip), vehicle: saline with Tween-80
[3] = dose: 50.0 mg/kg/injection, schedule: Q01DX009 (ip), vehicle: Klucel (hydroxypropylcellulose) (HPC)
[4] = dose: 100.0 mg/kg/injection, schedule: Q01DX009 (ip), vehicle: Klucel (hydroxypropylcellulose) (HPC)
[5] = dose: 200.0 mg/kg/injection, schedule: Q01DX009 (ip), vehicle: Klucel (hydroxypropylcellulose) (HPC)
[6] = dose: 100.0 mg/kg/injection, schedule: Q01DX005 (ip), vehicle: saline with Tween-80
[7] = dose: 50.0 mg/kg/injection, schedule: Q01DX005 (ip), vehicle: Klucel (hydroxypropylcellulose) (HPC)
[8] = dose: 100.0 mg/kg/injection, schedule: Q01DX005 (ip), vehicle: Klucel (hydroxypropylcellulose) (HPC)
[9] = dose: 200.0 mg/kg/injection, schedule: Q01DX005 (ip), vehicle: Klucel (hydroxypropylcellulose) (HPC)
[10] = dose: 60.0 mg/kg/injection, schedule: Q01DX005 (ip), vehicle: saline with Tween-80
[11] = dose: 120.0 mg/kg/injection, schedule: Q01DX005 (ip), vehicle: saline with Tween-80
[12] = dose: 240.0 mg/kg/injection, schedule: Q01DX005 (ip), vehicle: saline with Tween-80

COC(=O)[C@H](NC(=O)c1ccccc1)[C@@H](O)/C=C/c1ccccc1
T/C [1]: 94 % of control | T/C [2]: 87 % of control

COc1ccc(S(=O)(=O)O)cc1-n1nc(C(=O)Nc2ccccc2)n[n+]1-c1cc(S(=O)(=O)[O-])ccc1OC
T/C (dose: 100.0 mg/kg/injection, schedule: Q01DX001 (ip), vehicle: suspension in saline): 100 % of control | T/C (dose: 200.0 mg/kg/injection, schedule: Q01DX001 (ip), vehicle: suspension in saline): 100 % of control | T/C (dose: 400.0 mg/kg/injection, schedule: Q01DX001 (ip), vehicle: suspension in saline): 103 % of control

CC1(C)OCC(C2OC(C)(C)OC2/C=C2/CC(=O)NC2=O)O1 (stereo not drawn)
T/C [3]: 100 % of control and 107 % of control | T/C [4]: 100 % of control and 120 % of control | T/C [5]: 102 % of control and 122 % of control | T/C (dose: 400.0 mg/kg/injection, schedule: Q01DX009 (ip), vehicle: Klucel (hydroxypropylcellulose) (HPC)): 116 % of control

CC1(C)C2(C(N)=O)C(=O)NC(=O)C12C(=O)O (stereo not drawn)
T/C (dose: 25.0 mg/kg/injection, schedule: Q04DX002 (ip), vehicle: saline with Tween-80): 95 % of control | T/C (dose: 50.0 mg/kg/injection, schedule: Q04DX002 (ip), vehicle: saline with Tween-80): 104 % of control | T/C (dose: 100.0 mg/kg/injection, schedule: Q04DX002 (ip), vehicle: saline with Tween-80): 103 % of control

C=Cc1ccc2cccc(O)c2n1
T/C (dose: 25.0 mg/kg/injection, schedule: Q01DX001 (ip), vehicle: saline with Tween-80): 106 % of control | T/C (dose: 50.0 mg/kg/injection, schedule: Q01DX001 (ip), vehicle: saline with Tween-80): 106 % of control | T/C (dose: 100.0 mg/kg/injection, schedule: Q01DX001 (ip), vehicle: saline with Tween-80): 89 % of control and 94 % of control

CCCn1c2nc(=O)[nH]c(=O)c-2[n+]([O-])c2ccccc21
T/C (dose: 6.25 mg/kg/injection, schedule: Q01DX001 (ip), vehicle: saline with Tween-80): 97 % of control | T/C (dose: 12.5 mg/kg/injection, schedule: Q01DX001 (ip), vehicle: saline with Tween-80): 98 % of control

CC(NC(=O)OC(C)(C)C)C(=O)NC(C)C(=O)NC(C)C(=O)OCc1ccccc1 (stereo not drawn)
T/C [1]: 99 % of control | T/C [6]: 99 % of control | T/C [2]: 101 % of control

Cc1nc(=S)c2ncn(-c3ccccc3)c2[nH]1
T/C (dose: 60.0 mg/kg/injection, schedule: Q01DX005 (ip), vehicle: Klucel (hydroxypropylcellulose) (HPC)): 95 % of control | T/C (dose: 120.0 mg/kg/injection, schedule: Q01DX005 (ip), vehicle: Klucel (hydroxypropylcellulose) (HPC)): 94 % of control

OCc1nccn1-c1ccccc1
T/C (dose: 25.0 mg/kg/injection, schedule: Q04DX002 (ip), vehicle: suspension in saline): 100 % of control | T/C (dose: 50.0 mg/kg/injection, schedule: Q04DX002 (ip), vehicle: suspension in saline): 99 % of control | T/C (dose: 100.0 mg/kg/injection, schedule: Q04DX002 (ip), vehicle: suspension in saline): 107 % of control | T/C (dose: 200.0 mg/kg/injection, schedule: Q04DX002 (ip), vehicle: suspension in saline): 100 % of control

NC(=O)[C@@H]1CC2CCC1C2 (stereo partly drawn)
T/C [7]: 88 % of control | T/C [8]: 93 % of control | T/C [9]: 87 % of control

CO/N=C/c1ccccc1C(=O)O
T/C [7]: 100 % of control | T/C [8]: 95 % of control | T/C [9]: 99 % of control

CC(=O)C[C@H](c1ccccc1)c1ccccc1[C@H](C)N(C)C
T/C [10]: 106 % of control | T/C [11]: 104 % of control

Cc1ccc(NC(=O)CCCC(=O)C(C#N)c2ccccc2Cl)cc1C (stereo not drawn)
T/C [10]: 102 % of control | T/C [11]: 108 % of control | T/C [12]: 101 % of control

O=C(O)C12C3C4C5C3C3(OCCO3)C1(Br)C5C42 (stereo not drawn)
T/C [10]: 100 % of control | T/C [11]: 102 % of control | T/C [12]: 107 % of control

N/C(=N\N=C/c1ccccc1)NN(Cc1ccccc1)N=O
T/C (dose: 25.0 mg/kg/injection, schedule: Q01DX005 (ip), vehicle: Klucel (hydroxypropylcellulose) (HPC)): 100 % of control | T/C [7]: 92 % of control | T/C [8]: 94 % of control

O=C1C=C(N2CCN(CCO)CC2)C(=O)c2c(N3CCN(CCO)CC3)cc(N3CCN(CCO)CC3)nc21
T/C (dose: 50.0 mg/kg/injection, schedule: Q01DX005 (ip), vehicle: saline): 97 % of control | T/C (dose: 100.0 mg/kg/injection, schedule: Q01DX005 (ip), vehicle: saline): 93 % of control | T/C (dose: 200.0 mg/kg/injection, schedule: Q01DX005 (ip), vehicle: saline): 93 % of control

CC(=O)OC1C(O)C(C)OC(OC2C(OC(=O)C3CCC4C(C3)OC3(CC(OC(=O)/C=C/c5ccccc5)C(C)CO3)C43CO3)OC(C)C(O)C2OC(C)=O)C1O (stereo not drawn)
T/C (dose: 0.25 mg/kg/injection, schedule: Q01DX009 (ip), vehicle: saline): 91 % of control | T/C (dose: 0.5 mg/kg/injection, schedule: Q01DX009 (ip), vehicle: saline): 100 % of control | T/C (dose: 1.0 mg/kg/injection, schedule: Q01DX009 (ip), vehicle: saline + alcohol): 113 % of control | T/C (dose: 1.0 mg/kg/injection, schedule: Q01DX009 (ip), vehicle: saline): 110 % of control | T/C (dose: 2.0 mg/kg/injection, schedule: Q01DX009 (ip), vehicle: saline + alcohol): 119 % of control | T/C (dose: 2.0 mg/kg/injection, schedule: Q01DX009 (ip), vehicle: saline): 117 % of control | T/C (dose: 4.0 mg/kg/injection, schedule: Q01DX009 (ip), vehicle: saline + alcohol): 124 % of control

CC(=O)c1coc2c(c(C)nn2-c2ccccc2)c1=O
T/C (dose: 7.5 mg/kg/injection, schedule: Q01DX005 (ip), vehicle: Klucel (hydroxypropylcellulose) (HPC)): 99 % of control | T/C (dose: 15.0 mg/kg/injection, schedule: Q01DX005 (ip), vehicle: Klucel (hydroxypropylcellulose) (HPC)): 100 % of control | T/C (dose: 30.0 mg/kg/injection, schedule: Q01DX005 (ip), vehicle: Klucel (hydroxypropylcellulose) (HPC)): 100 % of control

O=C1c2ccccc2CN(c2ccccc2)C(=Nc2ccccc2)N1c1ccccc1
T/C [1]: 95 % of control | T/C [6]: 93 % of control | T/C [2]: 95 % of control

COc1ccc(B2OCCO2)cc1
T/C [1]: 100 % of control | T/C [6]: 97 % of control | T/C [2]: 101 % of control

O=C1C2C3C=CC(O3)C2C(=O)N1/N=C\C(O)C(O)C(O)C(O)CO (stereo not drawn)
T/C [1]: 97 % of control | T/C [6]: 98 % of control | T/C [2]: 95 % of control

CC(C)(CCN)c1cc(CC(C)(C)C2(C)OCCO2)no1
T/C [1]: 113 % of control | T/C [6]: 108 % of control | T/C [2]: 113 % of control

OC1C(O)C(O)C(O)C(O)C1O (stereo not drawn)
T/C (dose: 50.0 mg/kg/injection, schedule: Q01DX009 (ip), vehicle: saline): 97 % of control | T/C (dose: 100.0 mg/kg/injection, schedule: Q01DX009 (ip), vehicle: saline): 96 % of control | T/C (dose: 200.0 mg/kg/injection, schedule: Q01DX009 (ip), vehicle: saline): 100 % of control | T/C (dose: 400.0 mg/kg/injection, schedule: Q01DX009 (ip), vehicle: saline): 96 % of control

C1CCNCC1.O=C([CH-]C(=O)C(F)(F)F)c1ccc2c(c1)C(=O)c1ccccc1-2.O=C([CH-]C(=O)C(F)(F)F)c1ccc2c(c1)C(=O)c1ccccc1-2.O=C([CH-]C(=O)C(F)(F)F)c1ccc2c(c1)C(=O)c1ccccc1-2.O=C([CH-]C(=O)C(F)(F)F)c1ccc2c(c1)C(=O)c1ccccc1-2.[Eu+3]
T/C (dose: 12.5 mg/kg/injection, schedule: Q01DX009 (ip), vehicle: Klucel (hydroxypropylcellulose) (HPC)): 112 % of control | T/C (dose: 25.0 mg/kg/injection, schedule: Q01DX009 (ip), vehicle: Klucel (hydroxypropylcellulose) (HPC)): 111 % of control | T/C [3]: 110 % of control

Cn1nc(C(N)=O)c(=O)[nH]c1=S
T/C [1]: 100 % of control | T/C [6]: 99 % of control | T/C [2]: 103 % of control

CC(C)N=C(c1ccccc1)N1CCCCC1
T/C (dose: 12.5 mg/kg/injection, schedule: Q01DX009 (ip), vehicle: saline): 98 % of control | T/C (dose: 25.0 mg/kg/injection, schedule: Q01DX009 (ip), vehicle: saline): 100 % of control

CC1=CCC(C)C(C)(C)C1CC/C(C)=C/CCC1(C)C(CCCO)/C(=C(\C)C=O)CCC1(C)O (stereo not drawn)
T/C (dose: 4.5 mg/kg/injection, schedule: Q01DX005 (ip), vehicle: Klucel (hydroxypropylcellulose) (HPC)): 152 % of control

Cc1noc2c1C(=O)c1ccccc1SC2
T/C [10]: 103 % of control | T/C [11]: 94 % of control | T/C [12]: 105 % of control

OC1CC2CC1C1C3C=CC(C3)C21 (stereo not drawn)
T/C (dose: 6.25 mg/kg/injection, schedule: Q01DX009 (ip), vehicle: saline with Tween-80): 104 % of control | T/C (dose: 12.5 mg/kg/injection, schedule: Q01DX009 (ip), vehicle: saline with Tween-80): 102 % of control | T/C (dose: 25.0 mg/kg/injection, schedule: Q01DX009 (ip), vehicle: saline with Tween-80): 102 % of control

O=C1CCC(c2n[nH]c(=S)n2-c2ccccc2)N1Cc1ccccc1 (stereo not drawn)
T/C [10]: 101 % of control | T/C [11]: 94 % of control | T/C [12]: 90 % of control

CCS(=O)(=O)C(=O)N1CCN(C(=O)S(=O)(=O)CC)CC1
T/C [3]: 98 % of control | T/C [4]: 100 % of control | T/C [5]: 106 % of control
